This assay concerns L1210 leukemia ip in BDF1 mice, survival T/C. Kind of assay: NCI In Vivo Anticancer Drug Screen. Data for tumor model L1210 Leukemia (intraperitoneal) in B6D2F1 (BDF1) mice. The conditions noted are these: endpoint: mean survival time, higher = longer survival. An outline of the steps:
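Tumor cells were implanted, animals were treated, and survival was followed. The result divides the treated measurement by the vehicle-control measurement.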

The mark [1] stands for this setting: dose: 100.0 mg/kg/injection, schedule: Q01DX009 (ip), vehicle: saline.
The mark [2] stands for this setting: dose: 100.0 mg/kg/injection, schedule: Q04DX003 (ip), vehicle: saline.
Setting [3] is: dose: 200.0 mg/kg/injection, schedule: Q01DX009 (ip), vehicle: saline.
Setting [4] is: dose: 200.0 mg/kg/injection, schedule: Q04DX003 (ip), vehicle: saline.
The mark [5] stands for this setting: dose: 400.0 mg/kg/injection, schedule: Q01DX009 (ip), vehicle: saline.
Where [6] appears, read: dose: 12.5 mg/kg/injection, schedule: Q04DX002 (ip), vehicle: saline with Tween-80.
The mark [7] stands for this setting: dose: 100.0 mg/kg/injection, schedule: Q04DX002 (ip), vehicle: saline with Tween-80.
Setting [8] is: dose: 200.0 mg/kg/injection, schedule: Q04DX002 (ip), vehicle: saline with Tween-80.
The mark [9] stands for this setting: dose: 400.0 mg/kg/injection, schedule: Q04DX002 (ip), vehicle: saline with Tween-80.

“And” between values parts separate entries of the source, which are not always exact repeats. Identical values can stand only once. Inconclusive results and toxic doses are left out.

On to `CCCCOc1cc(C(=O)NCCN(CC)CC)c2ccccc2n1`, for which the T/C is, setting by setting: (dose: 6.25 mg/kg/injection, schedule: Q04DX003 (ip), vehicle: saline) 98 % of control; (dose: 12.5 mg/kg/injection, schedule: Q04DX003 (ip), vehicle: saline) 98 % of control; (dose: 25.0 mg/kg/injection, schedule: Q04DX003 (ip), vehicle: saline) 107 % of control.
In the case of `O=C(O)C1(C(=O)O)CCOCC1`, the T/C (dose: 50.0 mg/kg/injection, schedule: Q04DX003 (ip), vehicle: saline) was 93 % of control; the T/C under setting [1] was 104 % of control; the T/C under setting [2] was 98 % of control; the T/C under setting [3] is 102 % of control; the T/C under setting [4] is 104 % of control; the T/C under setting [5] was 96 % of control. For the same molecule, the T/C (dose: 400.0 mg/kg/injection, schedule: Q04DX003 (ip), vehicle: saline) was 103 % of control.
Turning to `CCN(CC)CCOC(=O)c1ccccc1S(N)(=O)=O`, the T/C is 104 % of control (dose: 100.0 mg/kg/injection, schedule: Q01DX001 (ip), vehicle: saline); 101 % of control (dose: 200.0 mg/kg/injection, schedule: Q01DX001 (ip), vehicle: saline); 98 % of control (dose: 400.0 mg/kg/injection, schedule: Q01DX001 (ip), vehicle: saline).
As to `COc1ccccc1/C1=C/CCCCCC1`, the T/C by setting is: (dose: 50.0 mg/kg/injection, schedule: Q01DX009 (ip), vehicle: acetone) 90 % of control; (dose: 100.0 mg/kg/injection, schedule: Q01DX009 (ip), vehicle: acetone) 88 % of control; (dose: 100.0 mg/kg/injection, schedule: Q04DX003 (ip), vehicle: acetone) 100 % of control; (dose: 200.0 mg/kg/injection, schedule: Q01DX009 (ip), vehicle: acetone) 87 % of control; (dose: 200.0 mg/kg/injection, schedule: Q04DX003 (ip), vehicle: acetone) 92 % of control; (dose: 400.0 mg/kg/injection, schedule: Q04DX003 (ip), vehicle: acetone) 89 % of control.
As to `COc1ccc(N(N=Nc2ccccc2)C(C)=O)cc1`, the T/C reads like this: (dose: 40.0 mg/kg/injection, schedule: Q01DX009 (ip), vehicle: Klucel (hydroxypropylcellulose) (HPC)) 96 % of control; (dose: 75.0 mg/kg/injection, schedule: Q01DX001 (ip), vehicle: Klucel (hydroxypropylcellulose) (HPC)) 96 % of control; (dose: 75.0 mg/kg/injection, schedule: Q01DX009 (ip), vehicle: Klucel (hydroxypropylcellulose) (HPC)) 101 % of control; (dose: 150.0 mg/kg/injection, schedule: Q01DX001 (ip), vehicle: Klucel (hydroxypropylcellulose) (HPC)) 90 % of control; (dose: 150.0 mg/kg/injection, schedule: Q01DX009 (ip), vehicle: Klucel (hydroxypropylcellulose) (HPC)) 112 % of control; (dose: 300.0 mg/kg/injection, schedule: Q01DX001 (ip), vehicle: Klucel (hydroxypropylcellulose) (HPC)) 86 % of control.
For the molecule `CCC(=O)OC1C(C)OC(OC2C(C)OC(O[C@H]3[C@@H](CC=O)C[C@@H](C)[C@@H](O)/C=C/C=C/C[C@@H](C)OC(=O)C[C@@H](OC(=O)CC)[C@@H]3OC)C(O)C2N(C)C)CC1(C)O` (stereo partly specified), the T/C (dose: 100.0 mg/kg/injection, schedule: Q01DX009 (ip), vehicle: Klucel (hydroxypropylcellulose) (HPC)) was 96 % of control; the T/C (dose: 100.0 mg/kg/injection, schedule: Q04DX003 (ip), vehicle: Klucel (hydroxypropylcellulose) (HPC)) is 104 % of control; the T/C (dose: 200.0 mg/kg/injection, schedule: Q01DX009 (ip), vehicle: Klucel (hydroxypropylcellulose) (HPC)) is 93 % of control; the T/C (dose: 200.0 mg/kg/injection, schedule: Q04DX003 (ip), vehicle: Klucel (hydroxypropylcellulose) (HPC)) was 95 % of control; the T/C (dose: 400.0 mg/kg/injection, schedule: Q01DX009 (ip), vehicle: Klucel (hydroxypropylcellulose) (HPC)) is 98 % of control; the T/C (dose: 400.0 mg/kg/injection, schedule: Q04DX003 (ip), vehicle: Klucel (hydroxypropylcellulose) (HPC)) is 91 % of control.
In the case of `O=C1N2CCOC2=NC1(c1ccccc1)c1ccccc1`, the T/C is 111 % of control (dose: 50.0 mg/kg/injection, schedule: Q01DX009 (ip), vehicle: saline); 94 % of control under setting [2]; 103 % of control under setting [4].
In the case of `O=C(C(Br)c1ccccc1)C(Br)c1ccccc1` (stereo unspecified), the T/C by setting is: (dose: 6.25 mg/kg/injection, schedule: Q01DX009 (ip), vehicle: saline with Tween-80) 104 % of control; (dose: 12.5 mg/kg/injection, schedule: Q01DX009 (ip), vehicle: saline with Tween-80) 98 % of control and 107 % of control; (dose: 12.5 mg/kg/injection, schedule: Q04DX003 (ip), vehicle: saline with Tween-80) 96 % of control; (dose: 25.0 mg/kg/injection, schedule: Q01DX009 (ip), vehicle: saline with Tween-80) 100 % of control and 110 % of control; (dose: 25.0 mg/kg/injection, schedule: Q04DX003 (ip), vehicle: saline with Tween-80) 90 % of control; (dose: 50.0 mg/kg/injection, schedule: Q01DX009 (ip), vehicle: saline with Tween-80) 102 % of control. Where the note is “dose: 50.0 mg/kg/injection, schedule: Q04DX003 (ip), vehicle: saline with Tween-80”, the T/C is 101 % of control.
`C1CCC2CCCCC2C1` (stereo unspecified): the T/C reads like this: (dose: 3.13 mg/kg/injection, schedule: Q04DX002 (ip), vehicle: saline with Tween-80) 100 % of control; (dose: 6.25 mg/kg/injection, schedule: Q04DX002 (ip), vehicle: saline with Tween-80) 103 % of control; under setting [6], 103 % of control; (dose: 50.0 mg/kg/injection, schedule: Q04DX002 (ip), vehicle: saline) 98 % of control; (dose: 100.0 mg/kg/injection, schedule: Q04DX002 (ip), vehicle: saline) 91 % of control; (dose: 200.0 mg/kg/injection, schedule: Q04DX002 (ip), vehicle: saline) 91 % of control. In addition, the T/C (dose: 400.0 mg/kg/injection, schedule: Q04DX002 (ip), vehicle: saline) is 91 % of control.
As for `CC(O)C(C)(C)CO` (stereo unspecified), the T/C is 94 % of control under setting [1], 95 % of control under setting [3] and 90 % of control under setting [5].
As to `Nc1ccc(Cc2ccc(Cl)cc2)cc1`, the T/C by setting is: (dose: 75.0 mg/kg/injection, schedule: Q01DX001 (ip), vehicle: acetone) 94 % of control; (dose: 150.0 mg/kg/injection, schedule: Q01DX001 (ip), vehicle: acetone) 94 % of control; (dose: 300.0 mg/kg/injection, schedule: Q01DX001 (ip), vehicle: acetone) 91 % of control.
With `CN(C)c1ccc(N=[N+]=[N-])cc1`, the T/C under setting [7] is 98 % of control, the T/C under setting [8] was 95 % of control and the T/C under setting [9] was 98 % of control.
As for `O=NN(CCCl)C(=O)NCCc1cccc[n+]1[O-]`, the T/C is, setting by setting: (dose: 6.25 mg/kg/injection, schedule: Q01DX001 (ip), vehicle: water) 154 % of control; (dose: 12.5 mg/kg/injection, schedule: Q01DX001 (ip), vehicle: water) 184 % of control; (dose: 25.0 mg/kg/injection, schedule: Q01DX001 (ip), vehicle: water) 312 % of control.
Consider `C[P+]1(C)CC=C2CCCCC21` (stereo unspecified), for which the T/C reads like this: under setting [6], 100 % of control; (dose: 25.0 mg/kg/injection, schedule: Q04DX002 (ip), vehicle: saline with Tween-80) 98 % of control; (dose: 50.0 mg/kg/injection, schedule: Q04DX002 (ip), vehicle: saline with Tween-80) 98 % of control.
Take `C1CCC2C(C1)CC1CCCCC12` (stereo unspecified): the T/C is 101 % of control under setting [7], 105 % of control under setting [8] and 101 % of control under setting [9].

For the origin of these results see PubChem BioAssay AID248 (DTP/NCI, 2004).
